Results taken from patent US20100062065A1, “PHARMACEUTICAL COMPOSITION CONTAINING NAPHTHOQUINONE-BASED COMPOUND FOR INTESTINE DELIVERY SYSTEM” (MAZENCE INC., priority 2006, published 2010).
Values joined by “and” are separate entries in the source; they are usually repeats but may differ in a detail not shown here. Identical values can stand only once.

How the values were obtained:
[1] = orally administered; cited from earlier work
[2] = Determination of partition coefficients (octanol / phosphate buffer pH 7.4); format: physicochemical; conditions: for Partition Coefficient: octanol/phosphate buffer pH 7.4, samples 1-3
Description: Octanol and phosphate buffer (pH 7.4) were saturated with a counter-solvent for 24 hours or more. A given amount of a naphthoquinone-based compound (Compound 1 of Table 1 below) was dissolved in the thus-saturated octanol, mixed with triple-distilled water and stirred using a magnetic stirrer at 200 rpm for 13 hours or more. Samples were taken, filtered through a 0.45 μm RC Membrane filter and diluted with methanol. The diluted sample materials were analyzed by HPLC. A partition coefficient versus an amount of Compound 1 was determined.

[3] = Intestinal absorption, single-pass intestinal perfusion; format: in vivo, rats
Description: In order to determine intestinal absorption (%) of a naphthoquinone-based compound, a single-pass intestinal perfusion technique was carried out in internal organs of rats, including jejunum, ileum and large intestine. The steady-state intestinal effective permeability (Peff) can be expressed according to the following equation. Peff=[−Qin·ln(Cout/Cin)]/A • Peff: Steady-state intestinal effective permeability (cm/s) • Qin: Perfusion flow rate (0.4 mL/min) • Cin, Cout: Inlet and fluid-transport-corrected outlet solution concentrations • A: Mass transfer surface area within intestinal segment (2πrL), • r, L: Radius and length of intestinal segment The radius (r) and length (L) of the jejunum, ileum and large intestine used in experiments are as follows: (r: jejunum, 0.21 cm; ileum, 0.22 cm; large intestine, 0.23 cm, and L: 10 cm) The steady-state was confirmed by the ratio of the outlet to inlet concentrations (Cout/Cin) versus time. The steady-state is established when the Cout/Cin ratio of the naphthoquinone-based compound is maintained at a constant value (n=3, error bars with respect to S.D.). Residual amounts of the naphthoquinone-based compound in the above three intestinal organs were measured at different time points. The outlet steady-state concentration of the compound under perfusion was calculated. The results thus obtained are given in Table 4 and FIG. 2, respectively. The effective permeability was measured at 4 points of each intestinal tissue.

Compound	absorption rate [1] [%]	octanol-solubility higher than water-solubility [2] [fold]	logD ([2]; octanol/phosphate buffer pH 7.4, pH 7.4, average over all amounts and samples, read-out: average partition coefficient)	Partition Coefficient ([2]; 100 μg/mL)	Partition Coefficient ([2]; 200 μg/mL)	Partition Coefficient ([2]; 2000 μg/mL)	Partition Coefficient ([2]; Excess)	average partition coefficient ([2]; pH 7.4)	Peff × 10^−5 ([3]; Duodenum)	Peff × 10^−5 ([3]; Ileum)	Peff × 10^−5 ([3]; Jejunum)	Peff × 10^−5 ([3]; Large intestine)
C[C@H]1COC2=C1C(=O)C(=O)c1c2ccc2c1CCCC2(C)C [cryptotanshinone]	2.05	–	–	–	–	–	–	–	–	–	–	–
CC1(C)CCC2=C(O1)c1ccccc1C(=O)C2=O [Compound 1]	–	100	2.3	2.17 and 2.02 and 1.99	2.40 and 2.20 and 2.24	2.59 and 2.62 and 2.58	2.65 and 2.05 and 2.08	* average partition coefficient: 2.299 (σ = 0.255)	0.79 ± 0.33 10^−5 cm/s	5.15 ± 1.49 10^−5 cm/s	2.37 ± 1.17 10^−5 cm/s	7.82 ± 0.93 10^−5 cm/s
